Data reported in patent US20260158011A1 (Achieve Life Sciences, Inc., priority 2023, published 2026).
Marks after values point to notes of the source that are not given here.

Tested on: adult e-cigarette users
Excerpt: A second measurement consisted of biochemically verified continuous vaping abstinence at any time during treatment, with vaping abstinence at Week 3-6 or Week 6-9 for of cytisinicline treatment vs placebo. 7-day point prevalence rates were compared for vaping abstinence (Week 2 to 12) (FIG. 62). An additional measurement included reduction in daily vaping as measured by cotinine, where cytisinicline treatment vs placebo for a reduction in nicotine vaping using weekly quantitative cotinine levels from Week 2 to Week 12. Safety was assessed by adverse effects and serious adverse effects, considering number, severity, and attribution to study drug.

[1] = by Preferred Term table, 12 Weeks, N = 106, Safety Set
[2] = overall summary, 12 Weeks, N = 106, Safety Set
[3] = possibly, probably or definitely related, 12 Weeks, N = 106, Safety Set

What does the source list for `O=c1cccc2n1C[C@@H]1CNC[C@H]2C1` [cytisine, (−)-Cytisine]?
TEAE Migraine, subjects n (12 Weeks, N = 106, Safety Set): 1 n; TEAE Musculoskeletal chest pain, subjects % (12 Weeks, N = 106, Safety Set): (0.9) %; TEAE Musculoskeletal chest pain, subjects n (12 Weeks, N = 106, Safety Set): 1 n; TEAE Nasal congestion, subjects (12 Weeks, N = 106, Safety Set): 0 n (%); TEAE Nasopharyngitis, subjects (12 Weeks, N = 106, Safety Set): 0 n (%); TEAE Nausea, subjects % (12 Weeks, N = 106, Safety Set): (4.7) %; TEAE Nausea, subjects n (12 Weeks, N = 106, Safety Set): 5 n; TEAE Neck pain, subjects % (12 Weeks, N = 106, Safety Set): (1.9) %; TEAE Neck pain, subjects n (12 Weeks, N = 106, Safety Set): 2 n; TEAE Oropharyngeal pain, subjects % (12 Weeks, N = 106, Safety Set): (1.9) %; TEAE Oropharyngeal pain, subjects n (12 Weeks, N = 106, Safety Set): 2 n; TEAE Otitis media, subjects (12 Weeks, N = 106, Safety Set): 0 n (%); TEAE Outcome Fatal (12 Weeks, N = 106, Safety Set): 0 n (%)/Events; TEAE Outcome Not recovered/Not resolved, Events (12 Weeks, N = 106, Safety Set): 23 Events; TEAE Outcome Not recovered/Not resolved, subjects (12 Weeks, N = 106, Safety Set): 14 (13.2) n (%); TEAE Outcome Recovered/Resolved with sequelae (12 Weeks, N = 106, Safety Set): 0 n (%)/Events; TEAE Outcome Recovered/Resolved, Events (12 Weeks, N = 106, Safety Set): 93 Events; TEAE Outcome Recovered/Resolved, subjects (12 Weeks, N = 106, Safety Set): 47 (44.3) n (%); TEAE Outcome Recovering/Resolving, Events (12 Weeks, N = 106, Safety Set): 3 Events; TEAE Outcome Recovering/Resolving, subjects (12 Weeks, N = 106, Safety Set): 3 (2.8) n (%); TEAE Pain in jaw, subjects (12 Weeks, N = 106, Safety Set): 0 n (%); TEAE Panic attack, subjects % (12 Weeks, N = 106, Safety Set): (1.9) %; TEAE Panic attack, subjects n (12 Weeks, N = 106, Safety Set): 2 n; TEAE Pelvic pain, subjects % (12 Weeks, N = 106, Safety Set): (0.9) %; TEAE Pelvic pain, subjects n (12 Weeks, N = 106, Safety Set): 1 n; TEAE Post viral fatigue syndrome, subjects (12 Weeks, N = 106, Safety Set): 0 n (%); TEAE Pregnancy, subjects (12 Weeks, N = 106, Safety Set): 0 n (%); TEAE Procedural anxiety, subjects % (12 Weeks, N = 106, Safety Set): (0.9) %; TEAE Procedural anxiety, subjects n (12 Weeks, N = 106, Safety Set): 1 n; TEAE Pyrexia, subjects (12 Weeks, N = 106, Safety Set): 0 n (%); TEAE Relationship Definite, Events (12 Weeks, N = 106, Safety Set): 3 Events; TEAE Relationship Definite, subjects (12 Weeks, N = 106, Safety Set): 3 (2.8) n (%); TEAE Relationship Not Related (first line, total of Not Related and Unlikely), Events (12 Weeks, N = 106, Safety Set): 65 Events; TEAE Relationship Not Related (first line, total of Not Related and Unlikely), subjects (12 Weeks, N = 106, Safety Set): 38 (35.8) n (%); TEAE Relationship Not Related (second line, sub-category), Events (12 Weeks, N = 106, Safety Set): 55 Events; TEAE Relationship Not Related (second line, sub-category), subjects (12 Weeks, N = 106, Safety Set): 32 (30.2) n (%); TEAE Relationship Possible, Events (12 Weeks, N = 106, Safety Set): 29 Events; TEAE Relationship Possible, subjects (12 Weeks, N = 106, Safety Set): 17 (16.0) n (%); TEAE Relationship Probable, Events (12 Weeks, N = 106, Safety Set): 22 Events; TEAE Relationship Probable, subjects (12 Weeks, N = 106, Safety Set): 16 (15.1) n (%); TEAE Relationship Unlikely, Events (12 Weeks, N = 106, Safety Set): 10 Events; TEAE Relationship Unlikely, subjects (12 Weeks, N = 106, Safety Set): 9 (8.5) n (%); TEAE Restless legs syndrome, subjects % (12 Weeks, N = 106, Safety Set): (0.9) %; TEAE Restless legs syndrome, subjects n (12 Weeks, N = 106, Safety Set): 1 n; TEAE Sensitive skin, subjects % (12 Weeks, N = 106, Safety Set): (0.9) %; TEAE Sensitive skin, subjects n (12 Weeks, N = 106, Safety Set): 1 n; TEAE Severity Mild, Events (12 Weeks, N = 106, Safety Set): 92 Events; TEAE Severity Mild, subjects (12 Weeks, N = 106, Safety Set): 50 (47.2) n (%); TEAE Severity Moderate, Events (12 Weeks, N = 106, Safety Set): 26 Events; TEAE Severity Moderate, subjects (12 Weeks, N = 106, Safety Set): 16 (15.1) n (%); TEAE Severity Severe, Events (12 Weeks, N = 106, Safety Set): 1 Events; TEAE Severity Severe, subjects (12 Weeks, N = 106, Safety Set): 1 (0.9) n (%); TEAE Sinus congestion, subjects % (12 Weeks, N = 106, Safety Set): (0.9) %; TEAE Sinus congestion, subjects n (12 Weeks, N = 106, Safety Set): 1 n; TEAE Sinusitis, subjects (12 Weeks, N = 106, Safety Set): 0 n (%); TEAE Stress, subjects % (12 Weeks, N = 106, Safety Set): (0.9) %; TEAE Stress, subjects n (12 Weeks, N = 106, Safety Set): 1 n; TEAE Thirst, subjects % (12 Weeks, N = 106, Safety Set): (0.9) %; TEAE Thirst, subjects n (12 Weeks, N = 106, Safety Set): 1 n; TEAE Tooth extraction, subjects (12 Weeks, N = 106, Safety Set): 0 n (%); TEAE Trismus, subjects (12 Weeks, N = 106, Safety Set): 0 n (%); TEAE Upper respiratory tract infection, subjects % (12 Weeks, N = 106, Safety Set): (5.7) %; TEAE Upper respiratory tract infection, subjects n (12 Weeks, N = 106, Safety Set): 6 n; TEAE Urinary tract infection, subjects % (12 Weeks, N = 106, Safety Set): (0.9) %; TEAE Urinary tract infection, subjects n (12 Weeks, N = 106, Safety Set): 1 n; TEAE Vasectomy, subjects % (12 Weeks, N = 106, Safety Set): (0.9) %; TEAE Vasectomy, subjects n (12 Weeks, N = 106, Safety Set): 1 n; TEAE Vomiting, subjects % (12 Weeks, N = 106, Safety Set): (0.9) %; TEAE Vomiting, subjects n (12 Weeks, N = 106, Safety Set): 1 n; TEAE Wisdom teeth removal, subjects % (12 Weeks, N = 106, Safety Set): (0.9) %; TEAE Wisdom teeth removal, subjects n (12 Weeks, N = 106, Safety Set): 1 n; Adverse event Abnormal dreams, % (Cytisinicline 12 wks (N = 106)): 12.3%; Adverse event Anxiety, % (Cytisinicline 12 wks (N = 106)): 9.4%; Adverse event Fatigue, % (Cytisinicline 12 wks (N = 106)): 5.7%; Adverse event Headache, % (Cytisinicline 12 wks (N = 106)): 6.6%; Adverse event Insomnia, % (Cytisinicline 12 wks (N = 106)): 10.4%; Adverse event Nausea, % (Cytisinicline 12 wks (N = 106)): 4.7%; Adverse event Upper respiratory tract infection, % (Cytisinicline 12 wks (N = 106)): 5.7%; At Least One TEAE (Cytisinicline 12 wks (N = 106)): 54 (50.9) n (%); Subjects with At Least One TEAE, % (Cytisinicline 12 wks (N = 106)): 50.9%; TEAE relationship: Not Related (Cytisinicline 12 wks (N = 106)): 39 (35.8) n (%); TEAE relationship: Related (Cytisinicline 12 wks (N = 106)): 30 (28.3) n (%); Treatment-emergent adverse events: Mild (Cytisinicline 12 wks (N = 106)): 50 (47.2) n (%); Treatment-emergent adverse events: Moderate (Cytisinicline 12 wks (N = 106)): 16 (15.1) n (%); Treatment-emergent adverse events: Severe (Cytisinicline 12 wks (N = 106), abnormal dreams): 1 (0.9)* n (%); At Least One TEAE, subjects % [1]: (50.9) %; At Least One TEAE, subjects n [1]: 54 n; Rate of adverse events (cytisinicline arm, 12 weeks): 50.9%; Adverse event COVID-19, % (human, in vivo): 3 (2.8) %; TEAE COVID-19, subjects % (human, in vivo): (2.8) %; TEAE COVID-19, subjects n (human, in vivo): 3 n; TEAE Influenza, subjects % (human, in vivo): (1.9) %; TEAE Influenza, subjects n (human, in vivo): 2 n; At Least One TEAE, Events [2]: 119 Events; At Least One TEAE, subjects [2]: 54 (50.9) n (%); TEAE Relationship Related, Events [3]: 54 Events; TEAE Relationship Related, subjects [3]: 30 (28.3) n (%)
